From ChEMBL document CHEMBL1629512, “Ipomotaosides A-D, resin glycosides from the aerial parts of Ipomoea batatas and their inhibitory activity against COX-1 and COX-2” (J Nat Prod, 2010)
pIC50: −log10 of the molar value.

Legend:
[1] = target: T1, Prostaglandin G/H synthase 1 (Ovis aries, UniProt P05979); assay: Inhibition of sheep COX1-mediated PGE2 production after 2 mins by liquid scintillation counting; conditions: for pIC50: read-out: IC50
T1 sequence (P05979 whole entry): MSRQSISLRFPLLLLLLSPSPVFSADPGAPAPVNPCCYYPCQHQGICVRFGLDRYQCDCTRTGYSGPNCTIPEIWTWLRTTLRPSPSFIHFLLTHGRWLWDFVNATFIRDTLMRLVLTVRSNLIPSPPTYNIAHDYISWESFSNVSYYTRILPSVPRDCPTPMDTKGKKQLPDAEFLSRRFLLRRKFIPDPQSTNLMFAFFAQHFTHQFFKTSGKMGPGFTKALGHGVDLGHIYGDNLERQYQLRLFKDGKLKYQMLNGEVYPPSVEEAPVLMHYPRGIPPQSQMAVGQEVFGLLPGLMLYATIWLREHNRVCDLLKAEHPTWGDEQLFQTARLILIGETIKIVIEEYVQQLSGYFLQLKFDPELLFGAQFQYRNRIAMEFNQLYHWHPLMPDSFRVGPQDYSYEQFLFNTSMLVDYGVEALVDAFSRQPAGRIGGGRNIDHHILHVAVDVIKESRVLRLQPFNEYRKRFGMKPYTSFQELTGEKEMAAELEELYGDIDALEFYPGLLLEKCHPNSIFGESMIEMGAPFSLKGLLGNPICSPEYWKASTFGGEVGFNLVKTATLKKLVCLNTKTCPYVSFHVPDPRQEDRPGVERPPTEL

[2] = target: T2, Prostaglandin G/H synthase 2 (Ovis aries, UniProt P79208); assay: Inhibition of sheep COX2-mediated PGE2 production after 2 mins by liquid scintillation counting; conditions: for pIC50: read-out: IC50
T2 sequence (P79208 whole entry): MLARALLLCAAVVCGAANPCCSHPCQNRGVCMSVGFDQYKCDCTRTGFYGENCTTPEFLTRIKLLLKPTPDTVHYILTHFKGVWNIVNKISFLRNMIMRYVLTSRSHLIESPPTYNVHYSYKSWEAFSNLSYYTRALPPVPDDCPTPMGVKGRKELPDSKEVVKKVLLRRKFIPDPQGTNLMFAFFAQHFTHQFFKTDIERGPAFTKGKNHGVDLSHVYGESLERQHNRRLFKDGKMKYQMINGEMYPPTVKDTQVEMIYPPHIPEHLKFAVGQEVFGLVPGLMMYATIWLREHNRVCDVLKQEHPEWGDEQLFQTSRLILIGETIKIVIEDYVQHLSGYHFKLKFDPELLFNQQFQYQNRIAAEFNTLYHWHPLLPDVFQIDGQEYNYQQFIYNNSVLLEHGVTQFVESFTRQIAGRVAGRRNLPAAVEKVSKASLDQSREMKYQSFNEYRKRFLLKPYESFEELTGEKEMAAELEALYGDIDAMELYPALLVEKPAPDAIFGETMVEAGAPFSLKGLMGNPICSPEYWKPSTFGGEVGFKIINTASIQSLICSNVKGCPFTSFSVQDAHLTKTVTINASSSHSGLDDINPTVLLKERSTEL

Row | pIC50 [1] | pIC50 [2] | IC50 [1] | IC50 [2] | SMILES
1 | 5.03 | 4.84 | – | – | CCCCCCCCCCCC(=O)O[C@@H]1[C@@H](O)[C@@H](OC(=O)/C=C/c2ccccc2)[C@H](O[C@@H]2[C@@H](OC(=O)CCCCCCCCC)[C@@H](O)[C@H](O[C@@H]3[C@@H](O)[C@H]4OC(=O)CCCCCCCCC[C@H](CCCCC)O[C@@H]5O[C@H](C)[C@H](O)[C@H](O)[C@H]5O[C@@H]4O[C@H]3C)O[C@H]2C)O[C@H]1C [IPOMOTAOSIDE A]
2 | 3.88 | 3.83 | – | – | CCCCCCCCCCCC(=O)O[C@@H]1[C@@H](O)[C@@H](OC(=O)/C=C/c2ccccc2)[C@H](O[C@@H]2[C@@H](O)[C@@H](OC(=O)CCCCCCCCCCC)[C@H](O[C@@H]3[C@@H](O)[C@H]4OC(=O)CCCCCCCCC[C@H](CCCCC)O[C@@H]5O[C@H](C)[C@H](O)[C@H](O)[C@H]5O[C@@H]4O[C@H]3C)O[C@H]2C)O[C@H]1C [IPOMOTAOSIDE B]
3 | – | – | Not Active | Not Active | CCCCCCCCCCCC(=O)O[C@@H]1[C@@H](O)[C@@H](OC(=O)/C=C/c2ccccc2)[C@H](O[C@@H]2[C@@H](O)[C@@H](OC(=O)CCCCCCCCC)[C@H](O[C@@H]3[C@H]4OC(=O)CCCCCCCCC[C@H](CCCCC)O[C@@H]5O[C@H](C)[C@H](O)[C@H](O)[C@H]5O[C@H](O[C@H]3C)[C@@H]4O)O[C@H]2C)O[C@H]1C [IPOMOTAOSIDE C]
4 | – | – | Not Active | Not Active | CCCCCCCCCCCC(=O)O[C@@H]1[C@@H](O)[C@@H](OC(=O)/C=C/c2ccccc2)[C@H](O[C@@H]2[C@@H](OC(=O)CCCCCCCCC)[C@@H](O)[C@H](O[C@@H]3[C@H]4OC(=O)CCCCCCCCC[C@H](CCCCC)O[C@@H]5O[C@H](C)[C@H](O)[C@H](O)[C@H]5O[C@H](O[C@H]3C)[C@@H]4O)O[C@H]2C)O[C@H]1C [IPOMOTAOSIDE D]
